Source: ChEMBL document CHEMBL5120750, “Bis-bibenzyls, Bibenzyls, and Terpenoids in 33 Genera of the Marchantiophyta (Liverworts): Structures, Synthesis, and Bioactivity” (2022)
Values after ≈ are worked out from the molar mass of the structure shown.

Key:
Saccharomyces cerevisiae [1] = assay: Antibacterial activity against Saccharomyces cerevisiae; format: functional
Saccharomyces cerevisiae [2] = assay: Bactericidal activity against Saccharomyces cerevisiae; format: functional

MIC (Saccharomyces cerevisiae [1])	Structure (SMILES)	MBC (Saccharomyces cerevisiae [2])
0.98 µg/mL (≈ 2.22 µM)	Oc1cc2cc(c1O)Oc1ccc(cc1)CCc1cccc(O)c1Oc1cccc(c1)CC2 [MARCHANTIN A]	0.98 µg/mL (≈ 2.22 µM)
0.98 µg/mL (≈ 2.21 µM)	Oc1cccc(CCc2ccc(Oc3cc(CCc4cccc(O)c4)cc(O)c3O)cc2)c1 [PERROTETTIN F]	0.98 µg/mL (≈ 2.21 µM)
